Test results from ChEMBL document CHEMBL1649394, “Cytotoxic and protective DNA damage of three new diterpenoids from the brown alga Dictoyota dichotoma” (Eur J Med Chem, 2011).
In brackets after ≈: the same amount, converted by molar mass. Activity calls are given as the source filed them. The rule behind the calls is not given here.

Columns and labels:
HepG2 = assay: Cytotoxicity against human HepG2 cells assessed as loss of cell monolayers after 96 hrs; format: functional, cell-based; details: HepG2, 96 h
[1] = Cytotoxicity against human WI38 cells assessed as loss of cell monolayers after 96 hrs; format: cell-based; details: WI-38, 96 h
Calf thymus DNA = assay: Protective activity against bleomycin-iron complex-induced calf thymus DNA damage assessed as chromogen formation at 0.1 mg/ml after 1 hr; format: nucleic-acid assay; details: Bos taurus
[2] = Toxicity in rat erythrocytes assessed as hemolysis at 2 mM; format: cell-based, Erythrocyte; details: read-out: Activity
Vero = assay: Cytotoxicity against african green monkey Vero cells assessed as loss of cell monolayers after 96 hrs; format: cell-based; details: Chlorocebus sabaeus
Brain = assay: Antioxidant activity in rat brain/kidney homogenates assessed as inhibition of lipid peroxidation at 2 mM by […] method; format: functional, tissue-based
[3] = Cytotoxicity against mouse EAC assessed as dead cells at 1 mg/ml after 2 hrs using trypan blue staining by hemocytometer analysis; format: functional, Ehrlich
MCF7 = assay: Cytotoxicity against human MCF7 cells assessed as loss of cell monolayers after 96 hrs; format: functional, cell-based; details: MCF7, 96 h
[4] = Cytotoxicity against mouse EAC assessed as dead cells at 25 ug/ml after 2 hrs using trypan blue staining by hemocytometer analysis; format: functional, Ehrlich
[5] = Cytotoxicity against human WI38 cells assessed as cell viability at 10 ug/ml after 96 hrs relative to control; format: cell-based, WI-38; details: read-out: Activity
[6] = Cytotoxicity against human WI38 cells assessed as cell viability at 50 ug/ml after 96 hrs relative to control; format: cell-based, WI-38; details: read-out: Activity
[7] = Cytotoxicity against human WI38 cells assessed as cell viability at 100 ug/ml after 96 hrs relative to control; format: cell-based, WI-38; details: read-out: Activity

Compound	IC50 (HepG2) [µg/mL]	IC50 [1] [µg/mL]	Activity (Calf thymus DNA)	hemolysis at 2000 µM [2] [%]	IC50 (Vero) [µg/mL]	inhibition (Brain) [%]	Activity [3] [%]	IC50 (MCF7) [µg/mL]	Activity [4] [%]	viability at 96 h, 10 ug/ml [5] [%]	viability at 96 h, 50 ug/ml [6] [%]	viability at 96 h, 100 ug/ml [7] [%]
CC(C)=CCCC(C)C1CC/C(C)=C/CCC2COC(O)C21 (configuration not stated) [ISODICTYOHEMIACETAL]	70.2 (≈ 229 µM)	84.6 (≈ 276 µM)	Active	0.75	76.4 (≈ 249 µM)	57.4	59.1	75.5 (≈ 246 µM)				
CC(C)=CCC[C@@H](C)[C@H]1[C@@H](O)[C@@H]2C(C)=CC[C@H]2[C@@](C)(O)C[C@H]1O [DICTYOL C]	101 (≈ 312 µM)	111 (≈ 343 µM)	inactive	1.1	161 (≈ 498 µM)	57.7	18	140 (≈ 436 µM)				
O=C1O[C@H]([C@@H](O)CO)C(O)=C1O [ASCORBIC ACID]				0.85		88.6						
CC(C)=CCC[C@@H](C)[C@@H]1CC=C(C)[C@@H]2CC=C(C)[C@H]2[C@@H]1O [ISOPACHYDICTYOL A]	39.2 (≈ 136 µM)	22.4 (≈ 77.6 µM)	Active	1.4	28.3 (≈ 98.1 µM)	59.9	48.4	39.2 (≈ 136 µM)				
C=C1CC[C@H](O)[C@]2(C)C[C@H](OC(C)=O)C3=C(C(C)C)[C@H](OC(C)=O)C[C@@]3(C)C[C@@]12O [AMIJIOL-7,10-DIACETATE]	47 (≈ 112 µM)	16.2 (≈ 38.5 µM)	Active	1.4	21.4 (≈ 50.9 µM)	80.2	71.2	30.5 (≈ 72.5 µM)				
C=C1CC[C@@H]([C@H](C)CCC=C(C)C)[C@@H](O)[C@@H]2C(C)=CC[C@@H]12 [PACHYDICTYOL A]	40.2 (≈ 139 µM)	24.6 (≈ 85.3 µM)	Active	2.45	27.4 (≈ 95 µM)	50.2	42.9	37.5 (≈ 130 µM)				
C=C1C[C@@H](O)[C@@H]([C@H](C)CCC=C(C)C)[C@@H](O)[C@@H]2C(C)=CC[C@@H]12	81.2 (≈ 267 µM)	62.6 (≈ 206 µM)	Active	1.1	72.3 (≈ 237 µM)	61.6	60.9	68.2 (≈ 224 µM)				
C/C1=C\[C@@H](O)C/C(C)=C/C[C@]2(C)CCC(C(C)C)=C2CC1 [DOLABELLATRIENOL]	102 (≈ 355 µM)	101 (≈ 349 µM)	inactive	5.75	121 (≈ 418 µM)	24.4	15.1	150 (≈ 522 µM)				
C=C1CC[C@H](O)[C@]2(C)CCC3=C(C(C)C)CC[C@@]3(C)C[C@@]12O [AMIJIOL]	70.2 (≈ 231 µM)	84.6 (≈ 278 µM)	Active	0.5	76.4 (≈ 251 µM)	59.2	56	75.5 (≈ 248 µM)				
O=c1[nH]cc(F)c(=O)[nH]1 [FLUOROURACIL]	8.6 (≈ 66.1 µM)	3.2 (≈ 24.6 µM)			6.5 (≈ 50 µM)			2.3 (≈ 17.7 µM)	99.5			
C=C1CC[C@H](OC(C)=O)[C@]2(C)CCC3=C(C(C)C)CC[C@@]3(C)C[C@@]12O [AMIJIOL ACETATE]	25.1	14.2	Active	0.7	20.5	83.3	85.9	21.2		65	12	0
